In ChEMBL document CHEMBL3860091, “Synthesis and activity of newly designed aroxyalkyl or aroxyethoxyethyl derivatives of piperazine on the cardiovascular and the central nervous systems” (Bioorg Med Chem Lett, 2016):

How the values were obtained:
Rattus norvegicus = species: Rattus norvegicus; assay: Selectivity ratio of Ki for rat brain cerebral cortex alpha2 adrenergic receptor to Ki for rat brain cerebral cortex alpha1 adrenergic receptor
[1] = target: T1, Adrenergic receptor alpha-1 (Rattus norvegicus, UniProt P15823+P23944+P43140); assay: Antagonist activity at alpha1 adrenergic receptor in rat aorta assessed as inhibition of phenylephrine-induced aortic contraction
T1 sequence (P15823 whole entry): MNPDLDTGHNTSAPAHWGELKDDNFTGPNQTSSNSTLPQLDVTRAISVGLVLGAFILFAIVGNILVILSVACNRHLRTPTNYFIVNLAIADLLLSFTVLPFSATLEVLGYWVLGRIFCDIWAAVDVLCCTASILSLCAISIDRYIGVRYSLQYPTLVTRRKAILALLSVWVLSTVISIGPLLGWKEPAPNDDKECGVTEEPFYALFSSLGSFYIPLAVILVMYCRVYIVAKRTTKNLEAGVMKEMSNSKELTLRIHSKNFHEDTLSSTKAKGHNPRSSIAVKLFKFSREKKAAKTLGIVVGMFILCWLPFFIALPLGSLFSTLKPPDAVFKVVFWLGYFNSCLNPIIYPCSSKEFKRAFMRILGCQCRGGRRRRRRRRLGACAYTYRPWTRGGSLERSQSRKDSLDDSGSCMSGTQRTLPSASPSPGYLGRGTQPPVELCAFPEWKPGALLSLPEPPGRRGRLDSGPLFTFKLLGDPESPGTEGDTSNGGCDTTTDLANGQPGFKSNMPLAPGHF
T1 sequence (P23944 whole entry): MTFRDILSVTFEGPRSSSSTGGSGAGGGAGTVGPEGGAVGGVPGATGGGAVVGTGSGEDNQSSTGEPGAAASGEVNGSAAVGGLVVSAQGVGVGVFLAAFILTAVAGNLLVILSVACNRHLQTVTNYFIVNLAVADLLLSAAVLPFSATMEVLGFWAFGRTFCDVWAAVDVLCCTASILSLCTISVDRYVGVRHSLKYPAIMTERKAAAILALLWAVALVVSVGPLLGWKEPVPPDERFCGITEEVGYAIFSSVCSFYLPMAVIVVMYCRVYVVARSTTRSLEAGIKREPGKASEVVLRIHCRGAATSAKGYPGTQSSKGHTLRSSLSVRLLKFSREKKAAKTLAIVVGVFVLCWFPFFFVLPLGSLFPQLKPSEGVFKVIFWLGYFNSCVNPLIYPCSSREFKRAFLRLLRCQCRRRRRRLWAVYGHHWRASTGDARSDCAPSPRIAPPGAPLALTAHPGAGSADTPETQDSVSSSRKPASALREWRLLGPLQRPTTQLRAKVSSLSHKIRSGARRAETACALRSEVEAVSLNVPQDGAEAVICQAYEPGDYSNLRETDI
T1 sequence (P43140 whole entry): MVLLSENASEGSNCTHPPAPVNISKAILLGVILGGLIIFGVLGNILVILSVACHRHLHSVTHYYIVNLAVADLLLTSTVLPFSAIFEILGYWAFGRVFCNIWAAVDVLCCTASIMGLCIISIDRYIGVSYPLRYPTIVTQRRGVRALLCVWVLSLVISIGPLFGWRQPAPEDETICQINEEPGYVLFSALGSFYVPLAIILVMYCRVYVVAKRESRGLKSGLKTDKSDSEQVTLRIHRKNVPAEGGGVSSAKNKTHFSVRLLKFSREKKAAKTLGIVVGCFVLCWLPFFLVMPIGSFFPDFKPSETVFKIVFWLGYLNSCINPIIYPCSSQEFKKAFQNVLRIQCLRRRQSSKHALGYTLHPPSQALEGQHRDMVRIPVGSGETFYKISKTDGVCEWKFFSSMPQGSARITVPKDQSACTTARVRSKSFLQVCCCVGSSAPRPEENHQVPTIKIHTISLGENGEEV

[2] = target: T1, Adrenergic receptor alpha-1; assay: Displacement of [3H]prazosin from alpha1 adrenergic receptor in rat brain cerebral cortex; type: tissue-based
[3] = Antidepressant-like activity in mouse assessed as immobility time at 5 mg/kg, ip by tail suspension test (reference value: 154.2 +/- 10.2 sec); type: functional, organism-based
[4] = Antidepressant-like activity in mouse assessed as immobility time at 10 mg/kg, ip by tail suspension test (reference value: 154.2 +/- 10.2 sec); type: functional, organism-based

Row | Ratio Ki (Rattus norvegicus) | pA2 [1] | Ki [2] | Compound | TIME [3] | TIME [4]
1 | 13.3 | 8.534 | 2.8 nM | COc1ccccc1N1CCN(CCCOc2cccc(C)c2C)CC1.Cl |  | 
2 |  |  |  | CN(C)CCCN1c2ccccc2CCc2ccccc21 | 0.0363 h | 0.0283 h
3 | 142 | 8.807 | 2.4 nM | COc1ccccc1N1CCN(CCCOc2c(C)cccc2C)CC1.Cl |  | 
